Reference: patent publication US12186283B2, “Bismuth-thiol compositions and methods of use” (Microbion Corporation, priority 2018, dated 2025)
In brackets after ≈: the same amount, converted by molar mass. Several values for one entry are separate records, joined by “and”; a condition that tells them apart may be missing. Identical values can stand only once. Like-named read-outs stand apart in the source and are kept apart here.

Legend:
Pseudomonas aeruginosa [1] = conditions: P. aeruginosa ATCC 27853, QC organism; cited from earlier work
P. aeruginosa = P. aeruginosa isolate 103, CLSI QC range in parenthesis, cited from earlier work
Escherichia coli = conditions: cited from earlier work
[2] = test system: Burkholderia cepacia complex; test: Checkerboard FIC assay, BisEDT with CF agents (Example 10); type: cell-based, Burkholderia spp.; conditions: agent alone, as observed during FIC testing
Pseudomonas aeruginosa [3] = test: Broth microdilution MIC (Example 12)
Pseudomonas aeruginosa [4] = test: Broth microdilution MIC (Example 11); type: cell-based; conditions: P. aeruginosa MMX 103 (ATCC 27853); QC
[5] = test system: Burkholderia spp. (B. cepacia complex); test: MIC against CF isolates (Example 5); type: cell-based; conditions: Table 4A; strain AU197, B. cenocepacia (B cepacia complex)
[6] = test system: Pseudomonas aeruginosa strain PA01; test: Bacterial killing curves with and without 10% CF patient sputum; conditions: for bactericidal activity: PA01, 0.1 μg/mL; for effect of CF patient sputum on bactericidal activity: PA01, 10% CF patient sputum
S. aureus ATCC 29213 = conditions: control strain ATCC 29213 S. aureus; per CLSI M100-S24 or provided by Microbion; cited from earlier work
[7] = Hematology after face-mask inhalation in beagle dogs; type: in vivo; conditions: inhalation Day 0 and 7, animal and Avg lines, samplings not labelled
Experimental: The objective of the study is to determine the maximum tolerated dose (MTD) or maximum feasible dose (MFD) of inhaled bismuth ethanedithiol (BisEDT) after face-mask inhalation exposure (up to 60 min of exposure) in male and female beagle dogs. Animals will be monitored for up to 14 days following the first day of exposure and blood will be collected at predetermined timepoints to analyze the pharmacokinetics of BisEDT. In addition, a coagulation panel will be conducted prior to necropsy. At the conclusion of the study animals will be euthanized and undergo necropsy during which the respiratory tract will be harvested for bioanalytical and histopathological analysis. Results obtained will inform a follow up repeated dose GLP study. This test article is currently being developed as a novel formulation of a broad spectrum antimicrobial/antibiofilm agent, indicated for the treatment of lung infections in patients with cystic fibrosis.
Once adequately conditioned to the restraint device and face-masks, the animals are individually exposed to the test article aerosols. Animals receive a single face-mask inhalation exposure in a ramp study design to test article aerosols for up to 60 min. Animal observations during and post exposure determine the tolerance of inhaled BisEDT aerosols.
Group 1 (vehicle) are exposed to a vehicle atmosphere for 30 minutes. Group 2 (50 μg/kg) are exposed to BisEDT for 30 minutes. Target concentrations and exposure durations for Groups 3-5 are based on the presence of any toxicity via clinical observations or gross necropsy findings. In each of Groups 3-5, if no adverse clinical signs of toxicity are observed, the next groups' exposure will be conducted at a higher target dose. If adverse clinical signs of toxicity are observed, the next groups' exposure will be conducted at a lower target dose. This approach is repeated for all BisEDT doses. The final documented exposure duration is the maximum tolerated dose or the maximum feasible dose.
Blood are collected for pharmacokinetic (PK) analysis prior to exposure, then at 4 hr (±5 min) post exposure, and again on Day 1, Day 2, Day 7 (pre- and 4 hr (±5 min)-post exposure), Day 8, Day 9, Day 10, Day 11, Day 12, Day 13, and Day 14. A total of 0.25 mL is collected at each timepoint. No PK blood is collected from the vehicle control (Group 1) animals; only animals exposed to BisEDT have blood collected for PK analysis. Collected samples are flash frozen without processing for shipment to Medpace for bioanalytical analysis. Additional blood is collected from all animals in all groups for hematology (1 mL) and clinical chemistry (1 mL) at baseline, Day 7 (pre-exposure), and again at euthanasia. Blood (2-2 mL) is collected from all animals at necropsy for coagulation analysis (d-Dimer, fibrinogen, PT, and PTT).
For hematology analyses, whole blood (1 ml) will be collected with vacutainers containing K3EDTA as an anticoagulant.
Hematology samples are analyzed by automated (ADVIA™ 120 Hematology System, Siemens Medical Solutions Diagnostics, Tarrytown, NY) analyses. Disposition will be recorded on the sample processing form.

[8] = Aerosol particle size distribution of nebulized suspensions (cascade impactor / APS)
[9] = Rat tolerance of BisEDT (inhalation, IV, oral); conditions: 100 μg/kg inhalation and IV and 250 μg/kg oral, single dose
E. coli ATCC 25922 = conditions: control strain ATCC 25922 E. coli; per CLSI M100-S24 or provided by Microbion; cited from earlier work
[10] = Phase 1 human clinical studies, topical administration; type: in vivo; conditions: humans
[11] = E. coli ATCC 25922, QC organism
[12] = dogs Group 2 (target 50 μg/kg; lung deposited 55-56 ug/kg)

SMILES: C[C@@H](O)[C@H]1C(=O)N2C(C(=O)O)=C(S[C@@H]3CN[C@H](C(=O)N(C)C)C3)[C@H](C)[C@H]12 [MEM]
- MIC, QC range (Pseudomonas aeruginosa [1]): (0.12-1) μg/mL
- MIC, CLSI QC range (P. aeruginosa; Table 24): (0.12-1) μg/mL
- MIC, CLSI QC range (P. aeruginosa; Table 26): (0.12-1) μg/mL
- MIC, QC range (Escherichia coli; [11]): (0.008-0.06) μg/mL
- MIC, QC range (Escherichia coli; E. coli ATCC 35218, QC organism): (0.008-0.06) μg/mL
- MIC ([2]; B. cenocepacia isolate 0548): 4 µg/mL
- MIC ([2]; B. cenocepacia isolate 0813): 2 µg/mL
- MIC ([2]; B. cepacia isolate 0546): 4 µg/mL
- MIC ([2]; B. cepacia isolate 1793): 4 µg/mL
- MIC ([2]; B. multivorans isolate 1795): 4 µg/mL
- MIC (Pseudomonas aeruginosa [3]; P. aeruginosa ATCC 27853, QC organism): 0.25 µg/mL (≈ 0.652 µM)
- MIC (Pseudomonas aeruginosa [3]; Pseudomonas aeruginosa CDC 230, VIM/OXA): >8 µg/mL
- MIC (Pseudomonas aeruginosa [3]; Pseudomonas aeruginosa CDC 231, KPC/OXA): >8 µg/mL
- MIC (Pseudomonas aeruginosa [3]; Pseudomonas aeruginosa CDC 241, IMP/OXA): >8 µg/mL
- MIC (Pseudomonas aeruginosa [3]; Pseudomonas aeruginosa CDC 246, NDM/OXA): >8 µg/mL
- MIC (Pseudomonas aeruginosa [3]; Pseudomonas aeruginosa CDC 250, NDM/OXA): >8 µg/mL
- MIC (Pseudomonas aeruginosa [3]; Pseudomonas aeruginosa CDC 356, KPC): >8 µg/mL
- MIC (Pseudomonas aeruginosa [3]; Pseudomonas aeruginosa CDC 439, IMP): >8 µg/mL
- MIC (Pseudomonas aeruginosa [3]; Pseudomonas aeruginosa CDC 444, VIM): >8 µg/mL
- MIC (Pseudomonas aeruginosa [3]; Pseudomonas aeruginosa CDC 457, VIM): >8 µg/mL
- MIC (Pseudomonas aeruginosa [3]; Pseudomonas aeruginosa CDC 516, KPC/AmpC): >8 µg/mL
- MIC (Pseudomonas aeruginosa [3]; Pseudomonas aeruginosa CDC 518, KPC/AmpC): >8 µg/mL

SMILES: CC(S)C(C)S.[Bi] (stereo not shown) [BisBDT, bismuth-2,3-butanedithiol]
- MIC (Pseudomonas aeruginosa [4]): 1 µg/mL
- MIC [5]: 4 µg/mL
- bactericidal activity [6]: not bactericidal
- more surviving in cultures with sputum ([6]; PA01, 4 μg/mL, 10% CF sputum, 3-6 hours): 0.5-0.8 log CFU/mL
- killing over the assay ([6]; PA01, 4 μg/mL, absence of sputum, 6 hour assay): about 1 log
- time to sterilization below the limit of detection ([6]; PA01, 20 μg/mL, with and without sputum): ≤ 5 h
- effect of CF patient sputum on bactericidal activity [6]: partially inhibited
- Expected MIC: goal (S. aureus ATCC 29213): 0.25 µg/mL

SMILES: C1C[S][Bi]([S]CC[S][Bi]2[S]CC[S]2)[S]1 [BisEDT, bismuth-1,2-ethanedithiol]
- MIC, QC range (Pseudomonas aeruginosa [1]): (0.5-4) μg/mL
- MIC, CLSI QC range (P. aeruginosa; Table 24): (0.5-4)^2 μg/mL
- MIC, CLSI QC range (P. aeruginosa; Table 26): (0.5-4) μg/mL
- HGB [7, 12]: 15.6 g/dL and 15.0 g/dL and 14.2 g/dL and 16.4 g/dL and 14.3 g/dL
- LUC [7, 12]: 0.01 ^3/uL and 0.02 ^3/uL
- MCH [7, 12]: 22.8 pg and 23.2 pg and 22.7 pg and 22.3 pg and 21.9 pg
- MCHC [7, 12]: 34.1 g/dL and 34.9 g/dL and 33.4 g/dL and 34.4 g/dL and 33.2 g/dL
- MONO [7, 12]: 0.63 ^3/uL and 0.67 ^3/uL and 0.53 ^3/uL and 0.50 ^3/uL and 0.51 ^3/uL
- LUC ([7]; dogs Group 4 (lung deposited 176-197 ug/kg)): 0.01 ^3/uL and 0.02 ^3/uL
- Particle Size (GSD) ([8]; BisEDT Lot # ED268-1-11-01, formulation 25 mg/mL, APS): 2.98 (1.8) μm
- Particle Size (GSD) ([8]; BisEDT Lot # ED268-1-11-01, formulation 50 mg/mL, APS): 2.83 (1.9) μm
- Particle Size (GSD) ([8]; BisEDT Lot # ED268-1-11-01, formulation 75 mg/mL, APS): 3.16 (1.70) μm
- Particle Size (GSD) ([8]; BisEDT Lot # ED268-1-11-01, formulation 100 mg/mL, APS): 3.53 (1.71) μm
- Particle Size (GSD) ([8]; BisEDT Lot # ED268-1-11-01, formulation 100* mg/mL (asterisk not explained), APS): 3.60 (1.71) μm
- Particle Size (GSD) ([8]; BisEDT Lot # ED268-1-11-01 suspension, formulation 1 mg/mL, PARI LC PLUS nebulizer, APS): 1.65 (1.6) μm
- Particle Size (GSD) ([8]; BisEDT Lot # XL-47-125, 300 mOsmol/kg vehicle, formulation 10 mg/mL): 1.61 (1.65) μm
- Particle Size (GSD) ([8]; BisEDT Lot # XL-47-125, 300 mOsmol/kg vehicle, formulation 50 mg/mL): 2.79 (1.69) μm
- Particle Size (GSD) ([8]; BisEDT Lot # XL-47-125, 300 mOsmol/kg vehicle, formulation 100 mg/mL (two tests)): 2.90 (1.67) μm and 2.60 (1.65) μm
- MMAD ([8]; exposure aerosols of the rat efficacy study, In-Tox Mercer Impactor): 1.54 μm
- tolerability [9]: tolerated
- Expected MIC: acceptable range (E. coli ATCC 25922): 0.5 to 2 µg/mL
- Expected MIC: goal (E. coli ATCC 25922): 1 µg/mL
- bactericidal activity [6]: not bactericidal
- effect of CF patient sputum on bactericidal activity [6]: partially inhibited
- Expected MIC: goal (S. aureus ATCC 29213): 0.25 to 0.5 µg/mL
- MIC, QC range (Escherichia coli; [11]): (0.5-4)^1 μg/mL
- concentration well-tolerated ([10]; administered topically for 6 hours): up to 2500 μg/cm^2
- concentration tolerated ([10]; topical, over 21 days continuous exposure to normal and abraded skin): up to 75 μg/cm^2
